Test results from article PMC9126595, “Identification of 3-(piperazinylmethyl)benzofuran derivatives as novel type II CDK2 inhibitors: design, synthesis, biological evaluation, and in silico insights” (Journal of Enzyme Inhibition and Medicinal Chemistry, 2022).
Like-named read-outs stand apart in the source and are kept apart here.

Key:
[1] = tested on: MCF-7 breast cancer cell line; experiment: SRB anti-proliferative assay, MCF-7; assay type: cell-based, human; conditions: read-out: IC50 MCF-7
Description: (§1) The experimental details for the performed biological assays; Sulforhodamine B (SRB) cytotoxicity, CDK2 kinase, Annexin V-FITC apoptosis, and cell cycle assays[86–89] were mentioned in the Supporting Information.
(§2) 1. Anti-proliferative activity assay
(§3) The examined human pancreatic cancer (Panc-1), breast cancer (MCF-7), and lung carcinoma (A549) cell lines have been obtained from American Type Culture Collection (ATCC). The cells were maintained in Dulbecco's modified Eagle's medium (DMEM) supplemented with 10% heat inactivated fetal calf serum (GIBCO), penicillin (100 U/ml) and streptomycin (100 µg/ml) at 37 °C in humidified atmosphere containing 5% CO2. […]
(§4) a 25 cm2 flask in 5 ml of culture medium. The anti-proliferative activity of the tested 3-(piperazinylmethyl)benzofurans (9, 11, 13, 15 and 17) was measured in vitro using the Sulfo-Rhodamine-B stain (SRB) assay. Briefly, cells were plated out in 96-well microtiter plate (0.5X10^4 cells/well) and incubated for 24 h before treatment with the tested hybrids to allow cells to attach to the bottom of the well of the plate. Tested benzofurans were dissolved in DMSO at 1 mg/ml immediately before use and diluted to the appropriate volume just before addition to the cell culture. Different concentrations of tested benzofurans, and Staurosporine were added to the cells (three wells were prepared for each individual dose). Cells were incubated with the hybrids for 48 […]
(§5) After 48 h cells were fixed, washed, and stained for 30 min with 0.4% (w/v) SRB dissolved in 1% acetic acid. Unbound dye was removed by four washes with 1% acetic acid, and attached stain was recovered with Tris-EDTA buffer. Color intensity was measured in an ELISA reader. The relation between percent of surviving fraction and log drug concentration is plotted to get the survival curve for each cell line. […]

[2] = tested on: A-549 lung carcinoma cell line; experiment: SRB anti-proliferative assay, A-549; assay type: cell-based, human; conditions: read-out: IC50 A-549
Description: as §1, §2, §3, §4, §5

[3] = tested on: Panc-1 pancreatic cancer cell line; experiment: SRB anti-proliferative assay, Panc-1; assay type: cell-based, human; conditions: read-out: IC50 Panc-1
Description: as §1, §2, §3, §4, §5

[4] = tested on: non-tumorigenic human lung fibroblast MRC-5 cell line; experiment: Normal cell cytotoxicity, MRC-5; assay type: cell-based
Protocol: To test the safety of the newly synthesised compounds and their selectivity towards cancer cells, their cytotoxic activity was tested on non-tumorigenic human lung fibroblast MRC-5 cell line.

CDK2 = target: T1, CDK2 (Homo sapiens, UniProt P24941); experiment: CDK2 kinase inhibitory assay (Promega CDK2 Kinase Enzyme System); assay type: biochemical; conditions: mean ± SD of three separate experiments
T1 construct: purchased Promega V2971
Description: The experimental details for the performed biological assays; Sulforhodamine B (SRB) cytotoxicity, CDK2 kinase, Annexin V-FITC apoptosis, and cell cycle assays[86–89] were mentioned in the Supporting Information. […]
4. CDK Kinase Inhibitory Activity
CDK2 Kinase Enzyme System (catalog No. V2971) (Promega, Milan, Italy), according to the
manufacturer’s instructions. […]

Panc-1 cells [5] = experiment: Cell cycle analysis (PI flow cytometry); assay type: cell-based, human; conditions: Panc-1, IC50 dose, 24 h
Protocol: as §3
a 25 cm2 flask in 5 ml of culture medium. […]
The concentration required for […]
concentration), and then cells were washed twice with ice-cold phosphate buffered saline (PBS).
Subsequently, the treated cells were collected by centrifugation, fixed in ice-cold 70% (v/v) ethanol, washed with PBS, re-suspended with 100 μg/mL RNase, stained with 40 μg/mL PI, and analyzed by flow cytometry using FACS Calibur (Becton Dickinson, BD, Franklin Lakes, NJ, USA). The cell cycle distributions were calculated using CellQuest software 5.1 (Becton

Panc-1 cells [6] = experiment: Annexin V-FITC/PI apoptosis assay; assay type: cell-based, human; conditions: Panc-1, IC50 concentration
Protocol: Anx V flowcytometry assay is featured as a helpful tool to determine whether cells death is due to the physiological apoptosis or to the non-specific necrosis.
3. Annexin V-FITC Apoptosis Assay
Phosphatidylserine externalization was assayed using Annexin V-FITC/PI apoptosis detection kit (BD Biosciences, USA) according to the manufacturer’s instructions. Pancreatic cancer Panc-1 […]
concentration. Briefly, cells were then harvested via trypsinization, and rinsed twice in PBS followed by binding buffer. Moreover, cells were re-suspended in 100 μL of binding buffer with the addition of 1 μL of FITC-Annexin V followed by an incubation period of 30 min at 4 °C. Cells were then rinsed in binding buffer and resuspended in 150 μL of binding buffer with the addition

[7] = SRB, 48 h, mean of 3 separate experiments
[8] = MRC5, normal lung fibroblasts, mean of three separate experiments, read-out: IC50 MRC-5
[9] = Homo sapiens, MCF7, SRB, 48 h, mean of 3 separate experiments
[10] = Homo sapiens, A549, SRB, 48 h, mean of 3 separate experiments
[11] = Homo sapiens, PANC-1, SRB, 48 h, mean of 3 separate experiments

Row | Structure (SMILES) | IC50 [4, 8] [µM] | IC50 [1, 9] [µM] | IC50 [2, 10] [µM] | melting point [°C] | IC50 [3, 11] [µM] | IC50 (CDK2) [µM] | also measured
1 | N.N.[Cl][Pt][Cl] [Cisplatin, reference compound] |  |  |  |  |  |  | IC50 [1, 7]: 5.45 ± 0.4 µM; IC50 [2, 7]: 6.72 ± 0.37 µM; IC50 [3, 7]: 6.98 ± 0.35 µM
2 | O=C(NNC(=S)Nc1ccccc1)c1oc2ccccc2c1CN1CCN(c2ccccc2)CC1 [Compound 9a] | 406 ± 21 | 118 ± 6.02 | 85.5 ± 6.21 | 198 to 200 | 86.9 ± 4.17 | 0.322 ± 0.016 | 
3 | COc1cccc(NC(=S)NNC(=O)c2oc3ccccc3c2CN2CCN(c3ccccc3)CC2)c1 [Compound 9b] | 289 ± 19 | 98.5 ± 4.47 | 80.4 ± 4.87 |  | 61.9 ± 3.48 | 0.0849 ± 0.0043 | 
4 | COc1ccc(NC(=S)NNC(=O)c2oc3ccccc3c2CN2CCN(c3ccccc3)CC2)cc1 [Compound 9c] | 261 ± 20 | 86.6 ± 5.28 | 72.2 ± 5.36 | 182 to 184 | 103 ± 6.21 | 0.214 ± 0.011 | 
5 | O=C(NNC(=S)Nc1cccc(F)c1)c1oc2ccccc2c1CN1CCN(c2ccccc2)CC1 [Compound 9d] | 166 ± 14 | 53.9 ± 3.57 | 40.4 ± 2.74 |  | 27.2 ± 1.87 | 0.0777 ± 0.041 | 
6 | O=C(NNC(=S)Nc1ccc(F)cc1)c1oc2ccccc2c1CN1CCN(c2ccccc2)CC1 [Compound 9e] | 52 ± 3 | 5.89 ± 0.43 | 5.24 ± 0.4 | 218 to 220 | 3.29 ± 0.2 | 0.065 ± 0.0033 | 
7 | O=C(NNC(=S)Nc1cccc(Cl)c1)c1oc2ccccc2c1CN1CCN(c2ccccc2)CC1 [Compound 9f] | 391 ± 25 | 127 ± 7.56 | 127 ± 7.61 |  | 126 ± 7.06 | 0.119 ± 0.0061 | 
8 | O=C(NNC(=S)Nc1ccc(Cl)cc1)c1oc2ccccc2c1CN1CCN(c2ccccc2)CC1 [Compound 9g] | 342 ± 30 | 121 ± 8.39 | 111 ± 6.38 | 197 to 199 | 122 ± 6.34 | 0.0698 ± 0.0036 | 
9 | CC(=O)c1ccc(NC(=S)NNC(=O)c2oc3ccccc3c2CN2CCN(c3ccccc3)CC2)cc1 [Compound 9i] | 142 ± 11 | 27.3 ± 2.05 | 29.2 ± 2.06 |  | 19.2 ± 1.27 | 0.0894 ± 0.00462 | 
10 | O=C(NNC(=O)c1oc2ccccc2c1CN1CCN(c2ccccc2)CC1)Nc1ccccc1 [Compound 11a] |  |  |  |  |  |  | IC50 ([4]; MRC5, read-out: IC50 MRC-5): 178 ± 13 µM; IC50 ([1]; Homo sapiens, MCF7, 48 h): 55.9 ± 3.18 µM; IC50 ([2]; Homo sapiens, A549, 48 h): 49.3 ± 3.27 µM; IC50 ([3]; Homo sapiens, PANC-1, 48 h): 56.8 ± 2.94 µM
11 | COc1cccc(NC(=O)NNC(=O)c2oc3ccccc3c2CN2CCN(c3ccccc3)CC2)c1 [Compound 11b] |  |  |  |  |  |  | IC50 ([4]; MRC5, read-out: IC50 MRC-5): 121 ± 10 µM; IC50 ([1]; Homo sapiens, MCF7, 48 h): 15.2 ± 1.34 µM; IC50 ([2]; Homo sapiens, A549, 48 h): 13.8 ± 1.04 µM; IC50 ([3]; Homo sapiens, PANC-1, 48 h): 10.2 ± 0.86 µM
12 | COc1ccc(NC(=O)NNC(=O)c2oc3ccccc3c2CN2CCN(c3ccccc3)CC2)cc1 [Compound 11c] |  |  |  |  |  |  | IC50 ([4]; MRC5, read-out: IC50 MRC-5): 246 ± 13 µM; IC50 ([1]; Homo sapiens, MCF7, 48 h): 76.9 ± 5.21 µM; IC50 ([2]; Homo sapiens, A549, 48 h): 57 ± 2.33 µM; IC50 ([3]; Homo sapiens, PANC-1, 48 h): 61.5 ± 4.52 µM
13 | O=C(NNC(=O)c1oc2ccccc2c1CN1CCN(c2ccccc2)CC1)Nc1ccc(Cl)c(C(F)(F)F)c1 [Compound 11d] |  |  |  |  |  |  | IC50 ([4]; MRC5, read-out: IC50 MRC-5): 74 ± 5 µM; IC50 ([1]; Homo sapiens, MCF7, 48 h): 5.57 ± 0.47 µM; proportion of cells in sub-G1 phase (Panc-1 cells [5]; control 2.36%): 23.04%; proportion of cells in G2/M phase (Panc-1 cells [5]; control 12.17%): 27.52%; cells population in S phase (Panc-1 cells [5]; control 41.90%): 22.61%; cells population in G0/G1 phase (Panc-1 cells [5]; control 43.57%): 26.83%; IC50 ([2]; Homo sapiens, A549, 48 h): 2.99 ± 0.21 µM; IC50 ([3]; Homo sapiens, PANC-1, 48 h): 2.22 ± 0.13 µM; total apoptotic cells percentage (Panc-1 cells [6]; control 2.41%): 29.93%; early apoptotic phase percentage (Panc-1 cells [6]; lower right quadrant, control 0.59%): 2.64%; late apoptotic phase percentage (Panc-1 cells [6]; upper right quadrant, control 0.32%): 15.87%
14 | COc1ccc(NC(=O)NNC(=O)c2oc3ccccc3c2CN2CCN(c3ccccc3)CC2)cn1 [Compound 11e] |  |  |  |  |  |  | IC50 ([4]; MRC5, read-out: IC50 MRC-5): 244 ± 18 µM; IC50 ([1]; Homo sapiens, MCF7, 48 h): 48.7 ± 3.54 µM; IC50 ([3]; Homo sapiens, PANC-1, 48 h): 54.6 ± 4.22 µM
15 | O=C(NN=Cc1ccccc1)c1oc2ccccc2c1CN1CCN(c2ccccc2)CC1 [Compound 13a] | > 500 | 118 ± 8.39 | 109 ± 7.59 |  | 169 ± 9.41 | 0.152 ± 0.0077 | 
16 | COc1cccc(C=NNC(=O)c2oc3ccccc3c2CN2CCN(c3ccccc3)CC2)c1 [Compound 13b] | 18.1 ± 1.3 | 2.98 ± 0.18 | 1.71 ± 0.1 | 176 to 178 | 1.04 ± 0.08 | 0.0656 ± 0.00331 | 
17 | COc1ccc(C=NNC(=O)c2oc3ccccc3c2CN2CCN(c3ccccc3)CC2)cc1 [Compound 13c] | 121 ± 9 | 13.6 ± 0.94 | 14.4 ± 1.02 | 181 to 182 | 4.47 ± 0.29 | 0.0526 ± 0.0027 | 
18 | CC(=NNC(=O)c1oc2ccccc2c1CN1CCN(c2ccccc2)CC1)c1ccccc1 [Compound 15a] | 452 ± 28 | 123 ± 6.82 | 98.4 ± 5.61 | 191 to 193 | 120 ± 5.77 | 0.333 ± 0.017 | 
19 | COc1ccc(C(C)=NNC(=O)c2oc3ccccc3c2CN2CCN(c3ccccc3)CC2)cc1 [Compound 15b] | 160 ± 10 | 44.4 ± 2.96 | 28.5 ± 1.92 |  | 25.4 ± 1.7 | 0.127 ± 0.0065 | 
20 | O=C(NN=C1CCCc2ccccc21)c1oc2ccccc2c1CN1CCN(c2ccccc2)CC1 [Compound 17] | 284 ± 15 | 82.8 ± 5.43 | 58.9 ± 1.88 |  | 80.4 ± 4.83 | 0.0656 ± 0.0033 | 
